Key:
Type in all cases: in vivo
Ipomea [1] = experiment: Pre-emergence herbicidal activity (Example 31); conditions: after three weeks
Description: (§1) Concentrated formulations of the compounds of the invention were prepared by: • a) in the case of oils and waxy solids, dissolving the compound in toluene containing 7% v/v "Teric" N13 ("Teric" is a Trade MarK and "Teric" N13, a product of ethoxylation of nonylphenol, is available from ICI Australia Limited) and 3% v/v "Kemmat" SC15B ("Kemmat" is a Trade Mark and "Kemmat" SC15B is a formulation of calcium dodecylbenzene sulfonate); or • b) in the case of crystalline solids, adding 5 parts by weight of the compound and 1 part by weight of . ''Dyapol" PT ("Dyapol" is a Trade Mark and "Dyapol" PT is an anionic suspending agent) to 94 parts by weight of an aqueous solution containing 0.25% v/v of "Teric" N8 (a product of ethoxylation of nonylphenol) and ball-milling the mixture to produce a stable suspension. The emulsifiable concentrates and suspensions were then diluted with water to give an aqueous composition of the required concentration suitable for use in the evaluation of the pre-emergence and post-emergence herbicidal activity of the compounds of the invention.
(§2) The pre-emergent herbicidal activity of the compounds of the invention formulated as described in Example 30 was assessed by the following procedure.
(§3) The seeds of the test species were sown in rows 2 cm deep in soil contained in seed boxes. The monocotyledonous plants and the dicotyledonous plants were sprayed with the required quantity of a composition of the invention. Two duplicate seed Doxes were prepared in the same manner but were not sprayed with a composition of the invention and were used for comparison purposes. All the boxes were placed in a glasshouse, lightly watered with an overhead spray to initiate germination and then sub-irrigated as required for optimum plant growth. After three weeks the boxes were removed from the glasshouse and the effect of the treatment was visually assessed. The results are presented in Table 3 where the damage to plants is rated on a scale of from 0 to 3 where 0 represents from 0 to 25% damage, 3 represents 75 to 99% kill and 3+ represents 100% kill.
(§4) A dash (-) means that no experiment was carried out.

Japanese millet [2] = experiment: Pre-emergence herbicidal activity (Example 31); conditions: after three weeks
Description: as §1, §2, §3, §4

Wild Oats [3] = experiment: Pre-emergence herbicidal activity (Example 31); conditions: after three weeks
Description: as §1, §2, §3, §4

Mustard [4] = experiment: Pre-emergence herbicidal activity (Example 31); conditions: after three weeks
Description: as §1, §2, §3, §4

Sunflower [5] = experiment: Pre-emergence herbicidal activity (Example 31); conditions: after three weeks
Description: as §1, §2, §3, §4

Ipomea [6] = experiment: Post-emergence herbicidal activity (Example 32); conditions: 3 weeks after spraying
Description: as §1
(§5) The post-emergent herbicidal activity of the compounds of the invention formulated as described in Example 30 was assessed by the following procedure.
(§6) The seeds of the test species were sown in rows 2 cm deep in soil contained in seed boxes. The monocotyledonous plants and the dicotyledonous plants were sown in separate seed boxes in duplicate. The four seed boxes were placed in a glasshouse, lightly watered with an overhead spray to initiate germination and then sub-irrigated as required for optimum plant growth. After the plants had grown to a height of about 10 to 12.5 cm one box of each of the monocotyledonous plants and the dicotyledonous plants was removed from the glasshouse and sprayed with the required quantity of a composition of the invention. After spraying the boxes were returned to the glasshouse for further 3 weeks and the effects of the treatment was visually assessed by comparison with the untreated controls. The results are presented in Table 4 where the damage to plants is rated on a scale of from 0 to 3 where 0 represents 0 to 25% damage, 3 represents 75 to 99% kill and 3+ represents 100% kill. A dash (-) means that no experiment was carried out.

Japanese millet [7] = experiment: Post-emergence herbicidal activity (Example 32); conditions: 3 weeks after spraying
Description: as §1, §5, §6

Ryegrass [8] = experiment: Post-emergence herbicidal activity (Example 32); conditions: 3 weeks after spraying
Description: as §1, §5, §6

Wild Oats [9] = experiment: Post-emergence herbicidal activity (Example 32); conditions: 3 weeks after spraying
Description: as §1, §5, §6

Mustard [10] = experiment: Post-emergence herbicidal activity (Example 32); conditions: 3 weeks after spraying
Description: as §1, §5, §6

Sunflower [11] = experiment: Post-emergence herbicidal activity (Example 32); conditions: 3 weeks after spraying
Description: as §1, §5, §6

Wheat [12] = experiment: Pre-emergence herbicidal activity (Example 31); parameters: key: 0-3 scale: 0 = 0-25% damage, 3 = 75-99% kill, 3+ = 100% kill; conditions: after three weeks
Description: as §1, §2, §3, §4

Ryegrass [13] = experiment: Pre-emergence herbicidal activity (Example 31); parameters: key: 0-3 scale: 0 = 0-25% damage, 3 = 75-99% kill, 3+ = 100% kill; conditions: after three weeks
Description: as §1, §2, §3, §4

Wheat [14] = experiment: Post-emergence herbicidal activity (Example 32); parameters: key: 0-3 scale: 0 = 0-25% damage, 3 = 75-99% kill, 3+ = 100% kill; conditions: 3 weeks after spraying
Description: as §1, §5, §6

Rice [15] = experiment: Pre-emergence herbicidal test, fibre trays (Example 33); conditions: 2.0 kg/ha, after 21 days
Description: (§7) The compounds were formulated for test by mixing an appropriate amount with 5 ml of an emulsion prepared by diluting 160 ml of a solution containing 21.S g per litre of "Span" 80 and 78.2 g per litre of "Tween" 20 in methylcyclohexanone to 500 ml with water. "Span" 80 is a Trade Mark for a surface-active agent comprising sorbitan monolaurate. "Tween" 20 is a Trade Mark for a surface-active agent comprising a condensate of sorbitan monolaurate with 20 molar proportions of ethylene oxide. Each 5 ml emulsion containing a test compound was'then diluted to 40 ml with water and sprayed on to young pot plants (post-emergence test) of the species named in Table 5 below. Damage to test plants was assessed after 14 days on a scale of 0 to 5 where 0 is 0 to 20% damage and 5 is complete kill. In a test for pre-emergence herbicidal activity, seeds of the test plants were sown in a shallow slit formed in the surface of soil in fibre trays. The surface was then levelled and sprayed, and fresh soil then spread thinly over the sprayed surface. Assessment of herbicidal damage was carried out after 21 days using the same scale of 0 to 5 as the post-emergence test. In both cases the degree of herbicidal damage was assessed by comparison with untreated control plants. A dash (-) means that no experiment was carried out.

Cotton [16] = experiment: as above; conditions: 2.0 kg/ha, after 21 days
Description: as §7

Rape [17] = experiment: as above; conditions: 2.0 kg/ha, after 21 days
Description: as §7

Sugar beet [18] = experiment: as above; conditions: 2.0 kg/ha, after 21 days
Description: as §7

Soy bean [19] = experiment: as above; conditions: 2.0 kg/ha, after 21 days
Description: as §7

Winter wheat [20] = experiment: as above; conditions: 2.0 kg/ha, after 21 days
Description: as §7

Senecio vulgaris [21] = experiment: as above; conditions: 2.0 kg/ha, after 21 days
Description: as §7

Cotton [22] = experiment: Post-emergence herbicidal test, young pot plants (Example 33); conditions: 2.0 kg/ha, after 14 days
Description: as §7

Ipomea purpurea = experiment: as above; conditions: 2.0 kg/ha, after 14 days
Description: as §7

Rape [23] = experiment: as above; conditions: 2.0 kg/ha, after 14 days
Description: as §7

Sugar beet [24] = experiment: as above; conditions: 2.0 kg/ha, after 14 days
Description: as §7

Soy bean [25] = experiment: as above; conditions: 2.0 kg/ha, after 14 days
Description: as §7

Amaranthus retroflexus = experiment: as above; conditions: 2.0 kg/ha, after 14 days
Description: as §7

Polygonum aviculare = experiment: as above; conditions: 2.0 kg/ha, after 14 days
Description: as §7

Chenopodium album = experiment: as above; conditions: 2.0 kg/ha, after 14 days
Description: as §7

Senecio vulgaris [26] = experiment: as above; conditions: 2.0 kg/ha, after 14 days
Description: as §7

Winter wheat [27] = experiment: as above; parameters: key: 0 = 0-20% damage, 5 = complete kill, vs untreated control; conditions: 2.0 kg/ha, after 14 days
Description: as §7

Maize [28] = experiment: Pre-emergence herbicidal test, fibre trays (Example 33); parameters: key: 0 = 0-20% damage, 5 = complete kill, vs untreated control; conditions: 2.0 kg/ha, after 21 days
Description: as §7

Rice [29] = experiment: Post-emergence herbicidal test, young pot plants (Example 33); conditions: 2.0 kg/ha, after 14 days
Description: as §7

Maize [30] = experiment: as above; conditions: 2.0 kg/ha, after 14 days
Description: as §7

COC(=O)C(C)Oc1ccc(N(C)c2ccc(Cl)cc2)cc1 (centres unmarked) [Compound 13, Methyl 2-[4-(4-chloro-N-methylanilino)phenoxy]-propionate]
damage to plants, Ip (Ipomea [1]; 1 kg/ha): 0 (0 represents from 0 to 25% damage) | damage to plants, Ip (Ipomea [1]; 5 kg/ha): 0 (0 represents from 0 to 25% damage) | damage to plants, Jm (Japanese millet [2]; 1 kg/ha): 0 (0 represents from 0 to 25% damage) | damage to plants, Jm (Japanese millet [2]; 5 kg/ha): 0 (0 represents from 0 to 25% damage) | damage to plants, Ot (Wild Oats [3]; 1 kg/ha): 0 (0 represents from 0 to 25% damage) | damage to plants, Ot (Wild Oats [3]; 5 kg/ha): 0 (0 represents from 0 to 25% damage) | damage to plants, Ms (Mustard [4]; 1 kg/ha): 0 (0 represents from 0 to 25% damage) | damage to plants, Ms (Mustard [4]; 5 kg/ha): 0 (0 represents from 0 to 25% damage) | damage to plants, Sf (Sunflower [5]; 1 kg/ha): 0 (0 represents from 0 to 25% damage) | damage to plants, Sf (Sunflower [5]; 5 kg/ha): 0 (0 represents from 0 to 25% damage) | damage to plants, Ip (Ipomea [6]; 1 kg/ha): 0 (0 represents 0 to 25% damage) | damage to plants, Ip (Ipomea [6]; 5 kg/ha): 0 (0 represents 0 to 25% damage) | damage to plants, Jm (Japanese millet [7]; 1 kg/ha): 3 (3 represents 75 to 99% kill) | damage to plants, Jm (Japanese millet [7]; 5 kg/ha): 3 (3 represents 75 to 99% kill) | damage to plants, Rg (Ryegrass [8]; 1 kg/ha): 1 | damage to plants, Rg (Ryegrass [8]; 5 kg/ha): 3 (3 represents 75 to 99% kill) | damage to plants, Ot (Wild Oats [9]; 1 kg/ha): 0 (0 represents 0 to 25% damage) | damage to plants, Ot (Wild Oats [9]; 5 kg/ha): 0 (0 represents 0 to 25% damage) | damage to plants, Ms (Mustard [10]; 1 kg/ha): 0 (0 represents 0 to 25% damage) | damage to plants, Ms (Mustard [10]; 5 kg/ha): 0 (0 represents 0 to 25% damage) | damage to plants, Sf (Sunflower [11]; 1 kg/ha): 0 (0 represents 0 to 25% damage) | damage to plants, Sf (Sunflower [11]; 5 kg/ha): 0 (0 represents 0 to 25% damage) | damage to plants, Wh (Wheat [12]; 1 kg/ha): 0 (0 represents from 0 to 25% damage) | damage to plants, Wh (Wheat [12]; 5 kg/ha): 0 (0 represents from 0 to 25% damage) | damage to plants, Rg (Ryegrass [13]; 1 kg/ha): 0 (0 represents from 0 to 25% damage) | damage to plants, Rg (Ryegrass [13]; 5 kg/ha): 1 | damage to plants, Wh (Wheat [14]; 1 kg/ha): 0 (0 represents 0 to 25% damage) | damage to plants, Wh (Wheat [14]; 5 kg/ha): 0 (0 represents 0 to 25% damage)

COC(=O)C(C)Oc1ccc(Nc2ccc(Cl)cc2)cc1 (centres unmarked) [Compound 12, Methyl 2-[4-(4-chloroanilino)prienoxy]propionate]
herbicidal damage, Rc (Rice [15]): 0 (0 is 0 to 20% damage) | herbicidal damage, Ct (Cotton [16]): 1 | herbicidal damage, Rp (Rape [17]): 1 | herbicidal damage, Sb (Sugar beet [18]): 2 | herbicidal damage, Sy (Soy bean [19]): 1 | herbicidal damage, Ww (Winter wheat [20]): 0 (0 is 0 to 20% damage) | herbicidal damage, Sn (Senecio vulgaris [21]): 0 (0 is 0 to 20% damage) | damage to test plants, Ct (Cotton [22]): 0 (0 is 0 to 20% damage) | damage to test plants, Ip (Ipomea purpurea): 0 (0 is 0 to 20% damage) | damage to test plants, Rp (Rape [23]): 0 (0 is 0 to 20% damage) | damage to test plants, Sb (Sugar beet [24]): 1 | damage to test plants, Sy (Soy bean [25]): 0 (0 is 0 to 20% damage) | damage to test plants, Am (Amaranthus retroflexus): 2 | damage to test plants, Pi (Polygonum aviculare): 0 (0 is 0 to 20% damage) | damage to test plants, Ca (Chenopodium album): 0 (0 is 0 to 20% damage) | damage to test plants, Sn (Senecio vulgaris [26]): 1 | damage to test plants, Ww (Winter wheat [27]): 0 (0 is 0 to 20% damage) | herbicidal damage, Mz (Maize [28]): 0 (0 is 0 to 20% damage) | damage to test plants, Rc (Rice [29]): 0 (0 is 0 to 20% damage) | damage to test plants, Mz (Maize [30]): 2

CCCCSC(=O)C(C)Oc1ccc(Nc2ccc(C(F)(F)F)cc2[N+](=O)[O-])cc1 (centres unmarked) [Compound 62]
damage to plants, Ip (Ipomea [1]; 1 kg/ha): 0 (0 represents from 0 to 25% damage) | damage to plants, Jm (Japanese millet [2]; 1 kg/ha): 2 | damage to plants, Ot (Wild Oats [3]; 1 kg/ha): 1 | damage to plants, Ms (Mustard [4]; 1 kg/ha): 0 (0 represents from 0 to 25% damage) | damage to plants, Sf (Sunflower [5]; 1 kg/ha): 0 (0 represents from 0 to 25% damage) | damage to plants, Ip (Ipomea [6]; 1 kg/ha): 0 (0 represents 0 to 25% damage) | damage to plants, Jm (Japanese millet [7]; 1 kg/ha): 3+ (3+ represents 100% kill) | damage to plants, Rg (Ryegrass [8]; 1 kg/ha): 3+ (3+ represents 100% kill) | damage to plants, Ot (Wild Oats [9]; 1 kg/ha): 3 (3 represents 75 to 99% kill) | damage to plants, Ms (Mustard [10]; 1 kg/ha): 0 (0 represents 0 to 25% damage) | damage to plants, Sf (Sunflower [11]; 1 kg/ha): 0 (0 represents 0 to 25% damage) | damage to plants, Wh (Wheat [12]; 1 kg/ha): 0 (0 represents from 0 to 25% damage) | damage to plants, Rg (Ryegrass [13]; 1 kg/ha): 2 | damage to plants, Wh (Wheat [14]; 1 kg/ha): 3 (3 represents 75 to 99% kill)
